Drawing on ChEMBL document CHEMBL5291721, “A preclinical secondary pharmacology resource illuminates target-adverse drug reaction associations of marketed drugs” (Nat Commun, 2023), this text covers AC50 for four compounds.

For one assay, the target named is T1, Thromboxane A2 receptor (Homo sapiens, UniProt P21731).
T1 sequence (P21731 whole entry): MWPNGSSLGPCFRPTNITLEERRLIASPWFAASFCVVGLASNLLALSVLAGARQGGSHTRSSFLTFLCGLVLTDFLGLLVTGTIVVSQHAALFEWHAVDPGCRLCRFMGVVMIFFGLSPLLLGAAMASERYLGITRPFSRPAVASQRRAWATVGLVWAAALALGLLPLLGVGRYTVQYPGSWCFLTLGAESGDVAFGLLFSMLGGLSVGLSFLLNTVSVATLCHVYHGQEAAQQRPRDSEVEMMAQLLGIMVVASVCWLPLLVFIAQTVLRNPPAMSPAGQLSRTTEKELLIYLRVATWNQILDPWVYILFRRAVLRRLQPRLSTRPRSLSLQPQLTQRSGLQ
In kind it is functional, cell-based.

The target in assay [1] is T2, Muscarinic acetylcholine receptor M2 (Homo sapiens, UniProt P08172).
T2 sequence (P08172 whole entry): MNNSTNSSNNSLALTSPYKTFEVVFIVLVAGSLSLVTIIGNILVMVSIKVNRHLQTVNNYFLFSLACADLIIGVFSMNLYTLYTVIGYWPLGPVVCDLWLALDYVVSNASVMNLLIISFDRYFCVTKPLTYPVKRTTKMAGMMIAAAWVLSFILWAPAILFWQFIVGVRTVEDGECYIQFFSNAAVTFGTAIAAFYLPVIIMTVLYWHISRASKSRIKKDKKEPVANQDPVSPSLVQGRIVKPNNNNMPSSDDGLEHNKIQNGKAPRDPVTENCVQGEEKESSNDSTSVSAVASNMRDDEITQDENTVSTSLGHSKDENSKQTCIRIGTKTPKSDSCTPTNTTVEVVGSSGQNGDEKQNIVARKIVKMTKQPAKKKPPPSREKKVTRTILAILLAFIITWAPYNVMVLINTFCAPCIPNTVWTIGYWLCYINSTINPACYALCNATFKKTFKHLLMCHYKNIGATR

In assay [2] the target is Sodium channel protein type 5 subunit alpha (Homo sapiens, UniProt Q14524). In kind it is functional, cell-based.
Assay [3] addresses Hydroxycarboxylic acid receptor 2 (Homo sapiens, UniProt Q8TDS4).

One may read the AC50 as the midpoint of the concentration-response curve, whichever way the signal moves. A higher AC50 goes with weaker potency.
Also: assay procedure not described here.

Hydroxycarboxylic acid receptor 2, sequence (Q8TDS4 whole entry): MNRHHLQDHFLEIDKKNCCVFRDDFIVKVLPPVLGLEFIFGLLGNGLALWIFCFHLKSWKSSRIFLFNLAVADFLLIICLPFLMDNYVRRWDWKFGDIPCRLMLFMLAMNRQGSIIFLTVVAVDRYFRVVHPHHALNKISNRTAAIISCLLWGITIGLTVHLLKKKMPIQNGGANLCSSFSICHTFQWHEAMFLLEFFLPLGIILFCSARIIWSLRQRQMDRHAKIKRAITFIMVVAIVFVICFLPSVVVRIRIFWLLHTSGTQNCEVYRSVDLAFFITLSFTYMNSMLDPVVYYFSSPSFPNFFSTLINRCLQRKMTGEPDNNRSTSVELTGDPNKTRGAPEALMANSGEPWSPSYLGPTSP
Sodium channel protein type 5 subunit alpha, sequence (Q14524 whole entry): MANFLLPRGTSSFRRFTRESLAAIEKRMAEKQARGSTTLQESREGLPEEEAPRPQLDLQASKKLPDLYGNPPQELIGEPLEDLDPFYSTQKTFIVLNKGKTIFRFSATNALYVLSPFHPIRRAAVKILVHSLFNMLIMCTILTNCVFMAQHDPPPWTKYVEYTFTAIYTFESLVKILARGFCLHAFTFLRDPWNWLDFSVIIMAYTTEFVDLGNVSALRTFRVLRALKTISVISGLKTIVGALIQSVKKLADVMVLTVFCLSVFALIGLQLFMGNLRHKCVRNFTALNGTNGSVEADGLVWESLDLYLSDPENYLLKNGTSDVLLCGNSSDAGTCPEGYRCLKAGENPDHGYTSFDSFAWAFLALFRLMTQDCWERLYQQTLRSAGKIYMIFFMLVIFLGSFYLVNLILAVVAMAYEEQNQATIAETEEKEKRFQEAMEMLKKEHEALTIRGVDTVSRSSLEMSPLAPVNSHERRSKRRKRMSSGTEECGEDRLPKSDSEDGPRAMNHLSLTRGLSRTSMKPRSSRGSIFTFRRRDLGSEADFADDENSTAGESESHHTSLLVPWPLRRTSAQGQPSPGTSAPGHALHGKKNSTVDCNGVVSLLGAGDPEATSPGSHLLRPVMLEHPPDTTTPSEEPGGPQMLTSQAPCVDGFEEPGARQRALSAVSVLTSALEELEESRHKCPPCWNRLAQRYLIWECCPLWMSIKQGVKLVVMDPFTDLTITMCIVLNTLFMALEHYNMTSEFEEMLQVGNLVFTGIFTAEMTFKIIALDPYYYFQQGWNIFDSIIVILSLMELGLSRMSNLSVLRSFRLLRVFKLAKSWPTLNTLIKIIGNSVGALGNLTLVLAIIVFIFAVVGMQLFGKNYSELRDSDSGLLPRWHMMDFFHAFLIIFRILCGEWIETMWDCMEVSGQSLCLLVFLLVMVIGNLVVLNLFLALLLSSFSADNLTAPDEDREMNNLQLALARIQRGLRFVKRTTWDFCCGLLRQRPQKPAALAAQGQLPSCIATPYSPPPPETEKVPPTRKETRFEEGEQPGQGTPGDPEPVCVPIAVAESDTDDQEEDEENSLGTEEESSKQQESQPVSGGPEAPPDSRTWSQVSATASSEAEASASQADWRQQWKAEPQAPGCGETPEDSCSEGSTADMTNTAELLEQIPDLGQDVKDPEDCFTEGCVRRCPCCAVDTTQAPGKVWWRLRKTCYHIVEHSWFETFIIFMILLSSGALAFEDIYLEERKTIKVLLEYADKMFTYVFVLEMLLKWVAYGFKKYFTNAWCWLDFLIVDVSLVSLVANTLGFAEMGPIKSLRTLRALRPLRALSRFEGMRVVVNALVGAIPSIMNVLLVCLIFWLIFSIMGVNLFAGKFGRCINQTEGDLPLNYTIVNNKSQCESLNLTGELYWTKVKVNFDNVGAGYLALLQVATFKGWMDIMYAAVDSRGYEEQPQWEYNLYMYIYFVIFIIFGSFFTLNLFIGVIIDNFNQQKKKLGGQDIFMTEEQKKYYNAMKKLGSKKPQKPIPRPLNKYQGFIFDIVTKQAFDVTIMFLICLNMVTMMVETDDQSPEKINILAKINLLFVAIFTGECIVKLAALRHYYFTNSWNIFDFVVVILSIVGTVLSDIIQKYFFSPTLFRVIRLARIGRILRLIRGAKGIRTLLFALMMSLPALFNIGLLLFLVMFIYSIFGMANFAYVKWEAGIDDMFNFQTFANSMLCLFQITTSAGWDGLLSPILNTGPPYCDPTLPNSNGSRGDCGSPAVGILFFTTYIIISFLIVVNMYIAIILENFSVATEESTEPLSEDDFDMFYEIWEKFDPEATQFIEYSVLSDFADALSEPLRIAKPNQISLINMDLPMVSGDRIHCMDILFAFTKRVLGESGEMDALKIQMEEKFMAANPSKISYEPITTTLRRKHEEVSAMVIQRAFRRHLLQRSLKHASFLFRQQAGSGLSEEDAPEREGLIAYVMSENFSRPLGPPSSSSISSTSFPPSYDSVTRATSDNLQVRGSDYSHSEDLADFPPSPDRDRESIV

On to `O=C(Nc1ccccc1)OCC(CN1CCCCC1)OC(=O)Nc1ccccc1` (centres undefined) [DIPERODON], for which the AC50 at Thromboxane A2 receptor is more than 30 µM. In the case of `CC(=O)OC(C)C[N+](C)(C)C` (centres undefined) [METHACHOLINE], half-maximal activity in assay [1] (AC50) was put at 9.7 µM. Regarding `O=P(O)(O)C(O)(Cc1cccnc1)P(=O)(O)O` [RISEDRONIC ACID], the AC50 in assay [2] is more than 30 µM.

In turn, `O=C1CCC(N2C(=O)c3ccccc3C2=O)C(=O)N1` (centres undefined) [THALIDOMIDE] gave an AC50 in assay [3] of more than 10 µM.
